Structures are written as SMILES.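 Growth conditions: 96-well plates. Treatment: test compound, 48 hours, 5 concentrations. Analysis: linear interpolation between bracketing concentrations; unreached endpoints set to highest concentration. At the GI50, growth is halved.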 The source made the active and inactive calls. No stated cut-off is given here; in the data, active = GI50 up to about 1.1 µM and inactive = higher.

Some test systems named below: A498; IGROV-1; TK-10; MCF7; COLO 205; HOP-92; NCI-H460; SF-268; A549; UACC-62; HCT-15; MDA-N; K562; NCI/ADR-RES; UACC-257; NCI-H23; CCRF-CEM; KM12; T47D; HOP-62.
Common to all, as to experiment: NCI tumour cell line growth inhibition, 48 h

Regarding `COc1cc(/C=N/c2ccc(S(N)(=O)=O)cc2)cc(OC)c1`, the GI50 with A498 is > 50 µM (inactive); with IGROV-1, 18.2 µM (inactive); with TK-10, > 50 µM (inactive); in the assay on MCF7, 22.3 µM (inactive); with COLO 205 it was > 50 µM (inactive); in the assay with HOP-92, > 50 µM (inactive). For the same molecule, the GI50 was > 50 µM (inactive) in the assay on NCI-H460; > 50 µM (inactive) with SF-268; > 50 µM (inactive) with A549; > 50 µM (inactive) with UACC-62; 29.6 µM in the assay on HCT-15; 26.5 µM (inactive) in the assay on MDA-N. Besides, the GI50 in the assay on K562 was 42.1 µM (inactive); in the assay on NCI/ADR-RES, > 50 µM (inactive); with UACC-257, > 50 µM (inactive); in the assay on NCI-H23, > 50 µM (inactive); in the assay on CCRF-CEM, 34.3 µM (inactive); in the assay on KM12, 30.1 µM (inactive). The GI50 with T47D and in the assay with HOP-62 was > 50 µM (inactive) each time.
For the molecule `O=C(NC(=S)Nc1ccc(Br)cc1)c1ccc2c(c1)Sc1ccccc1S2`, the GI50 is 19.6 µM (inactive) in the assay with A498; 16.1 µM (inactive) in the assay on IGROV-1; 16.9 µM (inactive) with TK-10; 32.7 µM (inactive) in the assay on MCF7; 41.8 µM (inactive) with COLO 205; 15.8 µM (inactive) with HOP-92. Moreover, the GI50 was 17.9 µM (inactive) in the assay on NCI-H460; 21.9 µM (inactive) in the assay with SF-268; 21 µM (inactive) with A549; 27.5 µM (inactive) in the assay on UACC-62; 38 µM in the assay on HCT-15; 28.9 µM (inactive) in the assay on MDA-N. Also, the GI50 was 9.04 µM (inactive) with K562; 24.2 µM (inactive) with NCI/ADR-RES; 21.7 µM (inactive) in the assay with UACC-257; 21.5 µM (inactive) in the assay on NCI-H23; 16.5 µM (inactive) in the assay with CCRF-CEM; 23.8 µM (inactive) in the assay with KM12. Also, the GI50 in the assay on T47D was 16.9 µM (inactive); in the assay with HOP-62, 16.1 µM (inactive).
Consider `COc1cc2c3c(cc(Cl)nc3c1OC)C(O)(CC(=O)c1ccccc1)C(=O)N2` (stereo not given), for which the GI50 in the assay on A498 was 18.4 µM (inactive); with IGROV-1, 13.2 µM (inactive); in the assay with TK-10 it was 18.1 µM (inactive); in the assay on MCF7, 1.88 µM (inactive); with COLO 205, 24.3 µM (inactive); in the assay with HOP-92 it was 1.94 µM (inactive). Besides, the GI50 with NCI-H460 was 21 µM (inactive); in the assay with SF-268, 4.94 µM (inactive); with A549, 18 µM (inactive); with UACC-62, 6.18 µM (inactive); in the assay on HCT-15, 21.5 µM; with MDA-N, 1.93 µM (inactive). Further, the GI50 was 4.79 µM (inactive) in the assay with K562; 24.8 µM (inactive) in the assay on NCI/ADR-RES; 8.15 µM (inactive) in the assay with UACC-257; 17 µM (inactive) with NCI-H23; 1.64 µM (inactive) in the assay with CCRF-CEM; 17.3 µM (inactive) in the assay on KM12. In addition, the GI50 was 3.56 µM (inactive) in the assay with T47D and 19.2 µM (inactive) with HOP-62.
Regarding `C[C@H]1CC(=O)[C@@]2(O)C#C/C=C\C#C[C@@H]3Nc4c(cc(O)c5c4C(=O)c4ccccc4C5=O)[C@]24O[C@]314`, the GI50 in the assay on A498 was 0.0586 µM (active); in the assay on IGROV-1, 0.16 µM (active); in the assay with TK-10, 0.0574 µM (active); in the assay on MCF7 it was < 0.001 µM (active); in the assay on COLO 205, 0.0568 µM (active); in the assay with HOP-92, 0.0157 µM (active). Also, the GI50 in the assay on NCI-H460 is < 0.001 µM (active); in the assay on SF-268, 0.00313 µM (active); with A549, 0.00543 µM (active); in the assay on UACC-62 it was 0.00764 µM (active); with HCT-15, 0.0248 µM; with MDA-N it was 0.0309 µM (active). For the same molecule, the GI50 is 0.0118 µM (active) in the assay with K562; 0.00914 µM (active) in the assay on NCI/ADR-RES; 0.00231 µM (active) in the assay with UACC-257; 0.00461 µM (active) in the assay on NCI-H23; 0.00106 µM (active) with CCRF-CEM; 0.0927 µM (active) in the assay on KM12. Moreover, the GI50 in the assay on T47D was 0.0305 µM (active); in the assay on HOP-62, 0.00159 µM (active).
As to `COc1ccc(C(=O)/C=C/c2ccc(OCC#N)cc2)cc1OC`, the GI50 with A498 is > 10 µM (inactive); in the assay on IGROV-1, 30.5 µM (inactive); in the assay on TK-10 it was 26.9 µM (inactive); with MCF7, 3.15 µM (inactive); with COLO 205, 11.9 µM (inactive); in the assay on HOP-92 it was 22.6 µM (inactive). The GI50 is 27.7 µM (inactive) in the assay with NCI-H460; 26.6 µM (inactive) in the assay on SF-268; 29.1 µM (inactive) in the assay on A549; 16.7 µM (inactive) with UACC-62; 20 µM in the assay on HCT-15; > 10 µM (inactive) in the assay on MDA-N. Further, the GI50 in the assay with K562 was 5.52 µM (inactive); with NCI/ADR-RES, 18.5 µM (inactive); in the assay with UACC-257 it was > 10 µM (inactive); in the assay with NCI-H23, 21.9 µM (inactive); in the assay on CCRF-CEM it was 3.21 µM (inactive); with KM12, 5.33 µM (inactive). For the same molecule, the GI50 is 5.79 µM (inactive) in the assay on T47D and 15.5 µM (inactive) in the assay with HOP-62.
On to `O=C1NC(=O)C(C(c2ccc([N+](=O)[O-])cc2)C2C(=O)NC(=O)NC2=O)C(=O)N1`, for which the GI50 in the assay with A498, in the assay with IGROV-1, in the assay on TK-10, in the assay on MCF7, in the assay with COLO 205 and in the assay with HOP-92 was > 100 µM (inactive) in each case. Further, the GI50 is > 100 µM (inactive) in the assay on NCI-H460; 22.5 µM (inactive) in the assay with SF-268; > 100 µM (inactive) with A549; > 100 µM (inactive) in the assay with UACC-62; > 100 µM with HCT-15; > 100 µM (inactive) in the assay on MDA-N. The GI50 with K562 was > 100 µM (inactive); in the assay with NCI/ADR-RES, > 100 µM (inactive); in the assay on UACC-257 it was > 100 µM (inactive); in the assay on NCI-H23, > 100 µM (inactive); in the assay with CCRF-CEM it was 62.1 µM (inactive); in the assay on KM12 it was > 100 µM (inactive). Besides, the GI50 with T47D and in the assay on HOP-62 was > 100 µM (inactive) in each case.
Take `CC(=O)OC1CCC2(C)C(=CCC3C2CCC2(C)C(C(C)C(=O)O)CCC32)C1` (stereo not given): the GI50 in the assay with A498 was 59.7 µM (inactive); with IGROV-1, > 100 µM (inactive); in the assay with TK-10, > 100 µM (inactive); in the assay with MCF7 it was 51.1 µM (inactive); with COLO 205, 39.9 µM (inactive); in the assay with HOP-92, > 100 µM (inactive). The GI50 is 63 µM (inactive) in the assay with NCI-H460; > 100 µM (inactive) in the assay on SF-268; 54.8 µM (inactive) in the assay with A549; > 100 µM (inactive) in the assay on UACC-62; 78.5 µM with HCT-15; > 100 µM (inactive) in the assay on MDA-N. The GI50 with K562 is > 100 µM (inactive); in the assay with NCI/ADR-RES, > 100 µM (inactive); in the assay with UACC-257, > 100 µM (inactive); with NCI-H23, > 100 µM (inactive); in the assay on CCRF-CEM, > 100 µM (inactive); in the assay with KM12, 84.7 µM (inactive). In addition, the GI50 in the assay with T47D and in the assay with HOP-62 was > 100 µM (inactive) each time.
Take `C[N+](C)(C)/N=C\c1ccc(O)c(O)c1`: the GI50 with A498, with IGROV-1, in the assay on TK-10, with MCF7, with COLO 205 and in the assay on HOP-92 was > 100 µM (inactive) throughout. Further, the GI50 with NCI-H460 was > 100 µM (inactive); with SF-268, > 100 µM (inactive); in the assay with A549, > 100 µM (inactive); in the assay with UACC-62, > 100 µM (inactive); in the assay on HCT-15 it was > 100 µM; in the assay on MDA-N it was > 100 µM (inactive). In addition, the GI50 with K562, in the assay with NCI/ADR-RES, with UACC-257, with NCI-H23, with CCRF-CEM and in the assay on KM12 was > 100 µM (inactive) each time. Further, the GI50 in the assay on T47D and with HOP-62 was > 100 µM (inactive) in each case.
Regarding `O=C(c1c2c(cc3c1CC1(Cc4cc5c(cc4C1)CCCC5)C3)CCCC2)C(Br)Br`, the GI50 in the assay on A498 is 29.7 µM (inactive); in the assay with IGROV-1, 9.02 µM (inactive); with TK-10 it was 17 µM (inactive); with MCF7, 7.67 µM (inactive); with COLO 205 it was 13.2 µM (inactive); in the assay with HOP-92, 13.4 µM (inactive). For the same molecule, the GI50 in the assay on NCI-H460 is 40.2 µM (inactive); in the assay on SF-268 it was 14.6 µM (inactive); with A549 it was 43.8 µM (inactive); in the assay with UACC-62 it was 14.9 µM (inactive); in the assay with HCT-15 it was 16.1 µM; in the assay with MDA-N, 14.8 µM (inactive). For the same molecule, the GI50 in the assay with K562 is 4.31 µM (inactive); in the assay on NCI/ADR-RES, 19.4 µM (inactive); with UACC-257 it was 19.9 µM (inactive); in the assay with NCI-H23, 14.6 µM (inactive); in the assay on CCRF-CEM, 1.6 µM (inactive); in the assay on KM12 it was 22.1 µM (inactive). Further, the GI50 is 6.38 µM (inactive) in the assay with T47D and > 51.2 µM (inactive) with HOP-62.
As for `COc1cc(CNc2nc3ccccc3nc2-c2cccs2)cc(OC)c1OC`, the GI50 with A498 was 18.6 µM (inactive); in the assay on IGROV-1 it was 20.4 µM (inactive); in the assay with TK-10 it was 33.8 µM (inactive); with MCF7, 21.7 µM (inactive); in the assay with COLO 205, 27.4 µM (inactive); in the assay with HOP-92 it was 1.26 µM (inactive). Besides, the GI50 in the assay with NCI-H460 is 10.5 µM (inactive); with SF-268, > 100 µM (inactive); in the assay on A549, 18.7 µM (inactive); in the assay on UACC-62, 13.7 µM (inactive); with HCT-15, 21.9 µM; in the assay with MDA-N, 16.3 µM (inactive). In addition, the GI50 with K562 was 17.6 µM (inactive); in the assay on NCI/ADR-RES it was 8.24 µM (inactive); in the assay with UACC-257, 34 µM (inactive); in the assay on NCI-H23, 14.5 µM (inactive); in the assay with CCRF-CEM it was 13.1 µM (inactive); in the assay on KM12 it was 31.4 µM (inactive). Moreover, the figures for the GI50 in the assay on T47D and in the assay with HOP-62 were 7.48 µM (inactive) and 21.4 µM (inactive), respectively.

The values are drawn from ChEMBL document CHEMBL1201862, “PubChem BioAssay data set” (2004).
